Key:
[1] = system: d(CGG)10 (DNA, repeat) CGGCGGCGGCGGCGGCGGCGGCGGCGGCGG; assay: CSI-TOF MS; conditions: NH4+ 100 mM (ammonium acetate); 50% aqueous methanol, spray -10 °C; 10 µM DNA, 50 µM NCD
[2] = system: GG1 (DNA, mismatch bulge abasic) CTAACGGAATG/CATTCGGTTAG; assay: CD; conditions: Na+ 100 mM (NaCl); 10 mM sodium cacodylate pH 7.0, room temperature; 5 µM DNA, 20 µM NCD
[3] = system: GG1 (DNA, mismatch bulge abasic) CTAACGGAATG/CATTCGGTTAG; assay: NMR structure and titration; conditions: Na+ 100 mM (NaCl); 20 mM sodium phosphate pH 6.8, 283 K; slow exchange, cooperative
[4] = system: GG1 with a T4 hairpin loop (DNA, mismatch bulge abasic) CTAACGGAATGTTTTCATTCGGTTAG; assay: CSI-TOF MS; conditions: NH4+ 100 mM (ammonium acetate); 50% aqueous methanol, spray -10 °C; 5 µM DNA, 100 µM NCD; 1:1 complex not observed
[5] = system: GG1 (DNA, mismatch bulge abasic) CTAACGGAATG/CATTCGGTTAG; assay: UV melting at 260 nm; conditions: Na+ 100 mM (NaCl); 10 mM sodium cacodylate pH 7.0; 5 µM DNA, 20 µM NCD; Tm without and with NCD
[6] = system: GG1 (DNA, mismatch bulge abasic) CTAACGGAATG/CATTCGGTTAG; assay: ITC; conditions: Na+ 100 mM (NaCl), 10 mM sodium cacodylate pH 7.0, 25 °C, 2.5 µM DNA, 50 µM NCD titrant

- binding [1]: yes
- binding [2]: yes
- binding [3]: yes
- binding [4]: yes
- Tm [5]: 21.8 °C
- apparent KD [6]: 0.067 µM
SMILES: Cc1ccc2ccc(NC(=O)OCCCNCCCOC(=O)Nc3ccc4ccc(C)nc4n3)nc2n1

Source: paper PMC9508812 (2022)
